Results on one molecule are retold here after BindingDB's records for doi:10.1021/jm00040a008 (Harvard Medical School, 1994).

The nature of this assay: Tested in vitro for inhibitory concentration against CCRF-CEM human Leukemic lymphoblast by using DHFR as primary target.

In general, IC50 refers to the concentration needed to halve the response being measured. The molecule `CCC(Cc1cnc2nc(N)nc(N)c2n1)c1ccc(C(=O)N[C@@H](CCC(=O)O)C(=O)O)cc1` (stereo partly specified) [Edatrexate] gave an IC50 of 2.6 nM.
